Results reported in patent publication US20180312493A1, “Antibiotic Compounds, Pharmaceutical Formulations Thereof And Methods And Uses Therefor” (Simon Fraser University, priority 2015, published 2018).
pIC50: −log10 of the molar value. In brackets after ≈: the same amount, converted by molar mass. Where a name gives a salt, the structure may show the parent alone. Read-outs that look alike come from different tables or passages of the source.

How the values were obtained:
MRSA MW2 (USA400) = assay: In vitro susceptibility, broth microdilution (MIC); assay type: cell-based, methicillin resistant S. aureus; conditions: Staphylococcus aureus, read-out: Antimicrobial activity (MIC) MSRA USA400
How it was run: (§1)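 MIC determined by CLSI 2-fold broth microdilution in cation-adjusted Mueller–Hinton broth at ~2.5×10^5 CFU/ml, final compound 0.031–64 μg/ml, 18–24 h at 37 °C. MIC is the lowest concentration giving complete growth inhibition by background-corrected OD600 versus compound-free wells; duplicate or triplicate wells, replicated at least twice.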

S. aureus (ATCC29213) = assay: In vitro susceptibility, broth microdilution (MIC); assay type: cell-based; conditions: Staphylococcus aureus
How it was run: (§2)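 CLSI 2-fold serial broth microdilution; K. pneumoniae C238 grown in L-broth, S. aureus ATCC 29213 in Mueller Hinton broth, plates incubated 18–24 h at 37 °C. MIC taken as lowest concentration giving complete growth inhibition by OD600 versus compound-free wells, background-subtracted.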

K. pneumoniae (C238) = assay: In vitro susceptibility, broth microdilution (MIC); assay type: cell-based; conditions: Klebsiella pneumoniae, read-out: Antimicrobial activity (MIC) K. pneumoniae
How it was run: as §2

VRE#2 (2010A) = assay: In vitro susceptibility, broth microdilution (MIC); assay type: cell-based, vancomycin resistant Enterococci; conditions: read-out: Antimicrobial activity (MIC) VRE#2
How it was run: as §1

[1] = tested on: S. typhimurium (ATCC BAA-185); assay: In vitro susceptibility, broth microdilution (MIC); assay type: cell-based; conditions: Salmonella enterica, read-out: Antimicrobial activity (MIC) S. typhimurium
How it was run: as §1

MRSA Pyk = biological target: T1, MRSA Pyk (Staphylococcus aureus, UniProt Q6GG09); assay: MRSA pyruvate kinase (PK) activity, continuous LDH-coupled assay; assay type: biochemical, methicillin resistant S. aureus (MRSA252)
T1 construct: made in house; host or cells: E. coli BL-21 (DE3)
How it was run: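 His-tagged MRSA PK (strain Sanger 252) and human PK isoforms expressed in E. coli BL-21 (DE3) and Ni-NTA purified, used at 15 nM in an LDH-coupled assay following NADH oxidation at 340 nm, 30° C, up to 5 min, ≤1% DMSO. IC50 from four-parameter variable-slope fit; Ki with PEP 2-20 mM, ADP fixed 2 mM, inhibitor 0-400 nM.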

[2] = tested on: A. baumannii (ATCC 17978); assay: In vitro susceptibility, broth microdilution (MIC); assay type: cell-based; conditions: Acinetobacter baumannii
How it was run: as §1

S. aureus ATCC 29123 = assay: Thigh infection model in neutropenic mice; assay type: in vivo, female CD-1 mice; conditions: thigh muscle, 10 mg/kg IV BID (2 and 8 h post-infection), 24 hr post infection
Description: The antimicrobial activity of compounds 23 and 60 against S. aureus ATCC 29123 was tested in vivo using a thigh infection model in neutropenic mice. Briefly, animals (female CD-1 mice, 5 weeks of age) were made neutropenic prior to S. aureus thigh infection by pre-treating with cyclophosphamide (150 mg/kg, IP, −4 and −1 days pre-inoculation). On the inoculation day (day 0), mice were infected with S. aureus at time zero (t=0). Animals were individually monitored for adverse reactions for 30 min post-infection.
Compounds 23 and 60 were prepared for IV administration and for oral administration. Vancomycin was administered as a solution in PBS. The test compounds were administered at 2 and 8 hours post-infection and animals were individually monitored for adverse reactions for 30 min after each injection. All animals were then monitored hourly from 20 hours post infection to the endpoint (t=24 hr post infection). At the indicated timepoint, animals were sacrificed and the injected thigh collected.
Quantitative enumeration of bacterial load was determined by plating serial dilutions from homogenized thigh muscles. The plates were incubated and colony counts were determined. CFU per mL calculated was calculated.

MRSA (ATCC BAA-1762) = assay: In vitro susceptibility, broth microdilution (MIC); assay type: cell-based, methicillin resistant S. aureus; conditions: Staphylococcus aureus; MRSA ATCC BAA-1762; read-out: Antimicrobial activity (MIC) MRSA ATCC BAA1762
How it was run: as §1

[3] = tested on: A. baumannii (ATCC 19606); assay: In vitro susceptibility, broth microdilution (MIC); assay type: cell-based; conditions: Acinetobacter baumannii, ATCC19606; A. baumannii ATCC 19606 (values without asterisk); read-out: Antimicrobial activity (MIC) A. baumannii
How it was run: as §1

[4] = Mammalian cytotoxicity, CellTiter 96 AQueous One (MTS); assay type: cell-based; conditions: human, HeLa 229 cells, positive control
Description: The cytotoxic activities of compounds were determined for HeLa cells 229 (ATCC:CCL-2-.1) in microtiter cultures by measuring dehydrogenase activity using CellTiter 96® AQueous One Solution Cell Proliferation Assay™ (Promega™, Madison, Wis., USA), according to the manufacturer's protocol. Freshly split cells were seeded into microtiter wells (2×10^4/well) and grown for 24 hours. The original media was then removed and replaced with media containing the desired concentration of compound or solvent control (i.e., DMSO). Plates were incubated for 24 h at 37° C. in a humidified incubator with a 5% CO2 atmosphere. At the end of the growth period, cells were lysed by the addition of 20 μl of Cell Titer 96 Aqueous One™ solution, and the incubation was continued for another 3 h at 37° C. Production of formazan was determined at 490 nm on Benchmark Plus™ microplate spectrophotometer (Bio-Rad™). To control for intrinsic absorbance, control series containing inhibitor dilutions but no cells were run for every experiment and the resulting absorbance values were subtracted as background from the experimental readings. Growth in compound-free control wells was considered as 100% and percentage of growth inhibition was calculated for each compound concentration. Cytotoxicity was quantified as the CC50, the concentration of compound that inhibited 50% of conversion of MTS to formazan. […]

[5] = S. aureus ATCC29213, 18-24 h, 37 C, read-out: Antimicrobial activity (MIC) S. aureus ATCC29213
[6] = ATCC17978, A. baumannii ATCC 17978 (values marked *), read-out: Antimicrobial activity (MIC) A. baumannii

T1 sequence (Q6GG09 whole entry): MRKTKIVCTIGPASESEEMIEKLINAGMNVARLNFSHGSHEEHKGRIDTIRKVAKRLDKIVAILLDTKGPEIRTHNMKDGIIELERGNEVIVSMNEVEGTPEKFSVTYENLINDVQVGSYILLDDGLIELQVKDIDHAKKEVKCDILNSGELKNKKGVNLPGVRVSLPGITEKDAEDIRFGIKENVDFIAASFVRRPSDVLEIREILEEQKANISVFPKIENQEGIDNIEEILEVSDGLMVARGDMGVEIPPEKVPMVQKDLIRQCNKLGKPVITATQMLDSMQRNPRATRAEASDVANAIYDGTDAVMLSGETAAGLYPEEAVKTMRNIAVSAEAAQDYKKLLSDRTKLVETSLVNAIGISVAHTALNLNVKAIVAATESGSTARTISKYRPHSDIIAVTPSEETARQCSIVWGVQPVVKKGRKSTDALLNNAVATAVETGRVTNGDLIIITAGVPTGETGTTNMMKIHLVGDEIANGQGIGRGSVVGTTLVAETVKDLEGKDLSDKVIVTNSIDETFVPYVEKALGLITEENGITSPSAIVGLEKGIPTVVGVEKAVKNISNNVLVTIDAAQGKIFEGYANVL

Row | Structure (SMILES) | MIC (MRSA MW2 (USA400); MRSA MW2 (USA400)) | MIC (S. aureus (ATCC29213); [5]) | MIC (VRE#2 (2010A); VRE#2 (2010A)) | pIC50 (MRSA Pyk) | further results
1 | O=C(O)CCCC(=O)c1c(-c2cc3cc(Cl)ccc3[nH]2)[nH]c2cc(Br)ccc12 [Compound 102, 5-(6-bromo-5′-chloro-1H,1′H-[2,2′-biindol]-3-yl)-5-oxopentanoic Acid] | 8 µg/mL (≈ 17.4 µM) | 8 µg/mL (≈ 17.4 µM) | 16 µg/mL (≈ 34.8 µM) | > 7.00 | MIC (K. pneumoniae (C238); K. pneumoniae (C238)): 16 µg/mL (≈ 34.8 µM); MIC [1]: 8 µg/mL (≈ 17.4 µM)
2 | CN1CCN(CCOC(=O)c2c(/C=C/c3ccc(Cl)cc3)[nH]c3cc(Br)ccc23)CC1 [Compound 61, 2-(4-Methylpiperazin-1-yl)ethyl (E)-6-bromo-2-(4-chlorostyryl)-1H-indole-3-carboxylate] | 4 µg/mL (≈ 7.95 µM) | 4 µg/mL (≈ 7.95 µM) | 4 µg/mL (≈ 7.95 µM) | 6.00 to 7.00 | MIC (K. pneumoniae (C238); K. pneumoniae (C238)): 4 µg/mL (≈ 7.95 µM); MIC [2, 6]: > 64 µg/mL
3 | CN(C)CCNC(=O)c1c(/C=C/c2ccc(Cl)cc2)[nH]c2cc(Br)ccc12 [Compound 23, (E)-6-Bromo-2-(4-chlorostyryl)-N-(2-(dimethylamino)ethyl)-1H-indole-3-carboxamide] | – | 8 µg/mL (≈ 17.9 µM) | – | > 7.00 | reduction in CFU (S. aureus ATCC 29123): 3 log
4 | CN(C)CCOc1cc2[nH]c(-c3cc4ccc(Br)cc4[nH]3)cc2cc1Cl [Compound 199, 2-((6′-Bromo-5-chloro-1H,1′H-[2,2′-biindol]-6-yl)oxy)-N,N-dimethylethan-1-amine] | – | 4 µg/mL (≈ 9.24 µM) | 4 µg/mL (≈ 9.24 µM) | > 7.00 | MIC (MRSA (ATCC BAA-1762)): 4 µg/mL (≈ 9.24 µM); MIC [1]: 32 µg/mL (≈ 73.9 µM); MIC [3]: 8 µg/mL (≈ 18.5 µM)
5 | CN1CCN(CCC(=O)c2c(/C=C/c3ccc(Cl)cc3)[nH]c3cc(Br)ccc23)CC1 [Compound 7, (E)-1-(6-Bromo-2-(4-chlorostyryl)-1H-indol-3-yl)-3-(4-methylpiperazin-1-yl)propan-1-one Hydrochloride] | – | – | – | 6.00 to 7.00 | MIC (MRSA MW2 (USA400)): 8 µg/mL; MIC (S. aureus (ATCC29213); ATCC29213, read-out: Antimicrobial activity (MIC) S. aureus ATCC29213): 8 µg/mL; MIC (K. pneumoniae (C238)): 8 µg/mL; MIC (VRE#2 (2010A)): 8 µg/mL; MIC ([2]; ATCC17978, read-out: Antimicrobial activity (MIC) A. baumannii): > 64 µg/mL
6 | CN(C)CCC(=O)c1c(/C=C/c2ccc(Cl)cc2)[nH]c2cc(Br)ccc12.Cl [Compound 6, (E)-1-(6-Bromo-2-(4-chlorostyryl)-1H-indol-3-yl)-3-(dimethylamino)propan-1-one Hydrochloride] | 8 µg/mL | 8 µg/mL | 8 µg/mL | 6.00 to 7.00 | MIC (K. pneumoniae (C238)): 8 µg/mL; MIC [2, 6]: 64 µg/mL
7 | COc1cc(O)c(CC=C(C)C)c(O)c1C(=O)/C=C/c1ccc(O)cc1 [xanthohumol] | – | – | – | – | CC50 at 24 h [4]: ~9 µg/mL (≈ 25.4 µM)
